Laboratory results from patent US10513694B2, “Thienopyrrole compounds and uses thereof” (PROMEGA CORPORATION, priority 2015, dated 2019).
“Also recorded” adds a separate entry of the source.

Experiments:
purified Nluc enzyme = molecular target: T1, purified Nluc enzyme (Oplophorus gracilirostris, UniProt Q9GV45, A31E/A60N/A81I/F95D/I117V/K70R/L54V/L99Q/M102K/N193R/P142E/Q151K/Q38R/Q45L/V71I/Y165I); assay type: biochemical; conditions: titration up to 100 μM final; RT 2 hrs; pro-substrate PBI-4442 + DTT
T1 construct: purchased Promega Corporation
Summary of the method: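 Purified Nluc enzyme with 20 mM DTT and a pro-substrate reduced by DTT to the Nluc substrate. 11-point 1:2 compound titrations (top 100 μM final) incubated 2 h at RT; luminescence read and IC50 fitted.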

[1] = system: firefly luciferase, e.g., ULTRAGLO® luciferase; assay: Specificity of inhibition: firefly luciferase activity; assay type: biochemical; conditions: 1 μM luciferin in Luciferase Detection Reagent; RT 2 hrs
Summary of the method: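 Counter-screen against firefly (ULTRAGLO®) luciferase: 1 μM luciferin in detection reagent mixed with equal volume of compound titrations. After 2 hrs at RT, luminescence read.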

[2] = system: Beta-2 Adrenergic Receptor-Nluc (B2AR-Nluc) fusion protein; assay: Cell permeability, B2AR-Nluc in HEK293 or HeLa cells -/+ digitonin; assay type: cell-based
Protocol: HEK293 or HeLa cells were transiently transfected with Beta-2 Adrenergic Receptor-Nluc (B2AR-Nluc) fusion protein to anchor and orient Nluc cytosolically. 24 hrs post-transfection, cells were treated with −/+50 μg/mL digitonin to emulate a live and lytic scenario, respectively. Then, intact cells and permeabilized cells were exposed to a compound response curve of thienopyrrole compound up to 2 hrs. 10 μM furimazine (Promega Corp.) was added, and luminescence was measured. If a thienopyrrole compound (inhibitor) was permeable, the dose-response curves for both live and permeabilized cells overlapped. However, if a thienopyrrole compound was impermeable, the EC50 was right-shifted in the live cells relative to the permeabilized cells.

[3] = system: Nluc-HALOTAG labeled with NANOBRET 618 ligand; assay: Inhibition of extracellular BRET; assay type: cell-based; conditions: HEK293 Nluc-HDAC6; 10 ng/mL extracellular Nluc-HALOTAG/NANOBRET 618; 2 hrs
Protocol: HEK293 were transiently transfected with an Nluc-HDAC6 fusion protein to orient Nluc-HDAC6 inside the cell. 24 hrs post-transfection, cells were treated 10 ng/mL purified Nluc-HALOTAG labeled with NANOBRET 618 ligand to simulate spurious extracellular BRET. Cells were then exposed to a compound response curve of the thienopyrrole compounds, JRW-0013, JRW-0051, JRW-0147, and JRW-0187, for 2 hrs. 10 μM furimazine was then added, and BRET ratio 610/450 nm was measured.

[4] = molecular target: T2, purified Nluc (extracellular); Nluc-HALOTAG fusion protein (intracellular) (Oplophorus gracilirostris, UniProt Q9GV45, A31E/A60N/A81I/F95D/I117V/K70R/L54V/L99Q/M102K/N193R/P142E/Q151K/Q38R/Q45L/V71I/Y165I); assay: Inhibition of extracellular luciferase activity and enhancement of intracellular BRET; assay type: cell-based; conditions: HEK293 Nluc-HALOTAG + NANOBRET 618; 10 ng/mL extracellular purified Nluc; 2 hrs
T2 construct: expressed in transfected cells; host or cells: HEK293 (Nluc-HaloTag); purified Nluc added from outside
Protocol: HEK293 were transiently transfected with Nluc-HALOTAG fusion protein to orient Nluc-HALOTAG inside the cell. 24 hrs post-transfection, cells were labeled with NANOBRET 618 ligand to simulate specific intracellular BRET. Cells were then treated 10 ng/mL purified Nluc to simulate spurious extracellular luminescence. Cells were exposed to a compound response curve of the thienopyrrole compounds, JRW-0013, JRW-0051, JRW-0147, and JRW-0187, for 2 hrs. 10 μM furimazine was added, and the BRET ratio 610/450 nm was measured.

Nluc luciferase = Nluc luciferase (Oplophorus gracilirostris, UniProt Q9GV45, A31E/A60N/A81I/F95D/I117V/K70R/L54V/L99Q/M102K/N193R/P142E/Q151K/Q38R/Q45L/V71I/Y165I); assay type: cell-based; design: expressed in transfected cells; host or cells: HEK293; conditions: HEK293; 10, 30 or 120 minutes
Protocol: HEK293 cells were transiently transfected with Nluc luciferase to express it cytosolically. Twenty-four hours post-transfection, cells were exposed to a compound response curve of the thienopyrrole compound JRW-0147 or JRW-0013 for 10 minutes, 30 minutes, or 120 minutes. 10 μM furimazine was then added, and luminescence was measured.

Nluc = Nluc (Oplophorus gracilirostris, UniProt Q9GV45, A31E/A60N/A81I/F95D/I117V/K70R/L54V/L99Q/M102K/N193R/P142E/Q151K/Q38R/Q45L/V71I/Y165I); assay: Specificity of inhibition of Nluc luciferase: Nluc; assay type: biochemical
Chain of Nluc (Q9GV45 28-196 with tags or gaps with the stated changes limits assumed): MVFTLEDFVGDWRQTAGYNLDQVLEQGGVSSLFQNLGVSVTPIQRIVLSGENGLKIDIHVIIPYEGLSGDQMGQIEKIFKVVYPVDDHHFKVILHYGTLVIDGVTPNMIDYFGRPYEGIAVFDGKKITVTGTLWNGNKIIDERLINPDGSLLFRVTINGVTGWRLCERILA

T1 sequence (Q9GV45 28-196 with tags or gaps with the stated changes limits assumed): as above
Chain of Nluc luciferase (Q9GV45 28-196 with tags or gaps with the stated changes limits assumed): as above
T2 sequence (Q9GV45 28-196 with tags or gaps with the stated changes limits assumed): as above

CCN(C(=O)Cn1c(C(=O)N[C@H]2CC[C@H](C(=O)OC)CC2)cc2sccc21)c1cccc(C)c1 [JRW-0013, trans-methyl-4-(4-(2-(ethyl(m-tolyl)amino)-2-oxoethyl)-4H-thieno[3,2-b]pyrrole-5-carboxamido)cyclohexane-1-carboxylate]
Inhibition of purified Nluc enzyme (FIG. 2) (purified Nluc enzyme): capable of inhibiting purified Nluc enzyme | Inhibition of firefly luciferase activity (FIG. 3) [1]: do not inhibit firefly luciferase activity; also recorded: did not inhibit the firefly luciferase activity | Cell permeability [2]: cell-permeable | BRET ratio 610/450 nm across compound dose-response curve (FIGS. 12B-12E) [3]: BRET ratio remained constant | BRET ratio 610/450 nm across compound dose-response curve (FIGS. 13B-13E) [4]: BRET ratio remained constant | Change in RLUs from cytosolic Nluc (FIG. 16) (Nluc luciferase): decrease the RLUs from Nluc in a dose-dependent manner independent of time

CCN(C(=O)Cn1c(C(=O)N[C@H]2CC[C@H](C(=O)NCCCCCC(=O)O)CC2)cc2sccc21)c1cccc(C)c1 [JRW-0147, 6-(trans-4-(4-(2-(ethyl(m-tolyl)amino)-2-oxoethyl)-4H-thieno[3,2-b]pyrrole-5-carboxamido)cyclohexane-1-carboxamido)hexanoic acid]
Inhibition of purified Nluc enzyme (FIG. 2) (purified Nluc enzyme): capable of inhibiting purified Nluc enzyme | Inhibition of firefly luciferase activity (FIG. 3) [1]: do not inhibit firefly luciferase activity; also recorded: did not inhibit the firefly luciferase activity | Cell permeability [2]: cell-impermeable | BRET ratio 610/450 nm across compound dose-response curve (FIGS. 12B-12E) [3]: BRET ratio decreased | BRET ratio 610/450 nm across compound dose-response curve (FIGS. 13B-13E) [4]: intracellular BRET ratio was enhanced | Nluc, Avg (luminescence) (Nluc; [cmpd] 0.1953125 μM): 115442 | Nluc, S/B (Nluc; [cmpd] 0.1953125 μM): 0.97 | Nluc, Avg (luminescence) (Nluc; [cmpd] 0.390625 μM): 113278 | Nluc, S/B (Nluc; [cmpd] 0.390625 μM): 0.95 | Nluc, Avg (luminescence) (Nluc; [cmpd] 0.78125 μM): 111603 | Nluc, S/B (Nluc; [cmpd] 0.78125 μM): 0.94 | Nluc, Avg (luminescence) (Nluc; [cmpd] 1.5625 μM): 103399 | Nluc, S/B (Nluc; [cmpd] 1.5625 μM): 0.87 | Nluc, Avg (luminescence) (Nluc; [cmpd] 3.125 μM): 96256 | Nluc, S/B (Nluc; [cmpd] 3.125 μM): 0.81 | Nluc, Avg (luminescence) (Nluc; [cmpd] 6.25 μM): 79191 | Nluc, S/B (Nluc; [cmpd] 6.25 μM): 0.67 | Nluc, Avg (luminescence) (Nluc; [cmpd] 12.5 μM): 66480 | Nluc, S/B (Nluc; [cmpd] 12.5 μM): 0.56 | Nluc, Avg (luminescence) (Nluc; [cmpd] 25 μM): 54498 | Nluc, S/B (Nluc; [cmpd] 25 μM): 0.46 | Nluc, Avg (luminescence) (Nluc; [cmpd] 50 μM): 42630 | Nluc, S/B (Nluc; [cmpd] 50 μM): 0.36 | Nluc, Avg (luminescence) (Nluc; [cmpd] 100 μM): 32702 | Nluc, S/B (Nluc; [cmpd] 100 μM): 0.27 | Nluc, Avg (luminescence) (Nluc; [cmpd] 200 μM): 23722 | Nluc, S/B (Nluc; [cmpd] 200 μM): 0.20 | Change in RLUs from cytosolic Nluc (FIG. 16) (Nluc luciferase): no significant change in RLUs from Nluc

CCN(C(=O)Cn1c(C(=O)N[C@H]2CC[C@H](C(=O)NCCCCCCS(=O)(=O)[O-])CC2)cc2sccc21)c1cccc(C)c1.[Na+] [JRW-0344, Sodium 6-(trans-4-(4-(2-(ethyl(m-tolyl)amino)-2-oxoethyl)-4H-thieno[3,2-b]pyrrole-5-carboxamido)cyclohexane-1-carboxamido)hexane-1-sulfonate]
Nluc, Avg (luminescence) (Nluc; [cmpd] 0.1953125 μM): 102409 | Nluc, S/B (Nluc; [cmpd] 0.1953125 μM): 0.92 | Nluc, Avg (luminescence) (Nluc; [cmpd] 0.390625 μM): 99851 | Nluc, S/B (Nluc; [cmpd] 0.390625 μM): 0.90 | Nluc, Avg (luminescence) (Nluc; [cmpd] 0.78125 μM): 95060 | Nluc, S/B (Nluc; [cmpd] 0.78125 μM): 0.86 | Nluc, Avg (luminescence) (Nluc; [cmpd] 1.5625 μM): 83141 | Nluc, S/B (Nluc; [cmpd] 1.5625 μM): 0.75 | Nluc, Avg (luminescence) (Nluc; [cmpd] 3.125 μM): 71976 | Nluc, S/B (Nluc; [cmpd] 3.125 μM): 0.65 | Nluc, Avg (luminescence) (Nluc; [cmpd] 6.25 μM): 65136 | Nluc, S/B (Nluc; [cmpd] 6.25 μM): 0.59 | Nluc, Avg (luminescence) (Nluc; [cmpd] 12.5 μM): 52627 | Nluc, S/B (Nluc; [cmpd] 12.5 μM): 0.47 | Nluc, Avg (luminescence) (Nluc; [cmpd] 25 μM): 40392 | Nluc, S/B (Nluc; [cmpd] 25 μM): 0.36 | Nluc, Avg (luminescence) (Nluc; [cmpd] 50 μM): 32113 | Nluc, S/B (Nluc; [cmpd] 50 μM): 0.29 | Nluc, Avg (luminescence) (Nluc; [cmpd] 100 μM): 23445 | Nluc, S/B (Nluc; [cmpd] 100 μM): 0.21 | Nluc, Avg (luminescence) (Nluc; [cmpd] 200 μM): 16291 | Nluc, S/B (Nluc; [cmpd] 200 μM): 0.15
